Assays:
[1] = Phase 1 dose-escalation study: interim cohort pharmacokinetics; type: in vivo, human; details: for dose proportionality of PK: Cycle 2 Day 1 (C2D1)
Protocol: Serial blood samples are obtained to characterize the plasma PK of Compound A and its major active metabolites. The initial sampling strategy is based on the predicted human PK of this compound. If in the course of evaluating the PK, it is determined that an alternative sampling scheme would be more informative, then that alternative sampling scheme may be implemented if the total amount of blood and blood draws obtained for PK is not increased. Moreover, the total number of samples may be decreased at any time if the initial sampling scheme is considered unnecessarily intensive.
Interim cohort pharmacokinetics were assessed on parent (Compound A) and two active metabolites (Compound B and Compound C). […] Compound B metabolite ratio is increased on C2D1 in cohorts above 200 mg dosages. […] Without wishing to be bound or limited by theory, elimination rate limited kinetics likely contributing to the accumulation of Compound B through on-target inhibition of CYP1A1.

[2] = molecular target: T1, AHR (Homo sapiens, UniProt P35869); assay: HepG2 DRE-Luc reporter assay, VAF347-stimulated luciferase expression; type: cell-based; parameters: endogenous in cells; host or cells: HepG2 DRE-Luc reporter cell line; details: 80 nM VAF347, n=2
T1 sequence (P35869 11-848): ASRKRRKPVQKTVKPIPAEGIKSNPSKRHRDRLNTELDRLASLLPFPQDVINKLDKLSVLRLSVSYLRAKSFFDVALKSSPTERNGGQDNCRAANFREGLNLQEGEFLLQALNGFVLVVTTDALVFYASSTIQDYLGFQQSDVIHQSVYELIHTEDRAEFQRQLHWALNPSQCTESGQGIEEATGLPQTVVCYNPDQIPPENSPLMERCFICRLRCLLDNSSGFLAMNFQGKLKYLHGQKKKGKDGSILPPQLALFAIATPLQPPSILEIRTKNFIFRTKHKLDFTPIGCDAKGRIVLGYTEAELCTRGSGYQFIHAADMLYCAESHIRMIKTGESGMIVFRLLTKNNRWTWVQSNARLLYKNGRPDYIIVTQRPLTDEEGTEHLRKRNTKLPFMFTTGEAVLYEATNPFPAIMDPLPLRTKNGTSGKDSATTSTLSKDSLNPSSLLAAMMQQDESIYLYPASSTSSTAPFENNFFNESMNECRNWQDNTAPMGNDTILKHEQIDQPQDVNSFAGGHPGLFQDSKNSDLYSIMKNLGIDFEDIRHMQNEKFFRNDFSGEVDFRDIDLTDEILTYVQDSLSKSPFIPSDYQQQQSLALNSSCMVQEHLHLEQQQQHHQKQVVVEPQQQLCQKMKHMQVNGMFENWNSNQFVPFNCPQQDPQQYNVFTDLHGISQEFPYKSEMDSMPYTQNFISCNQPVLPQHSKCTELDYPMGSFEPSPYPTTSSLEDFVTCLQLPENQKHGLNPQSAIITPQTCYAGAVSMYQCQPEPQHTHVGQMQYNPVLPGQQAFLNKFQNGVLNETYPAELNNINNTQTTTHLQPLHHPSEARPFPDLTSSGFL
Protocol: In vitro experiments were conducted to examine the inhibitory activity of Compound A for AHR-mediated transcriptional activation in the HepG2 DRE-Luc reporter cell line. This human hepatoma cell line stably expresses a luciferase reporter gene under control of AHR-responsive DRE enhancer elements (Han, 2004). HepG2 DRE-Luc reporter cells were treated with 80 nM VAF347 to activate AHR.
The inhibitory activity of the human Compound A metabolites, Compound B and Compound C was also determined in the HepG2 DRE-Luc cell line. Reporter cells were stimulated with 80 nM VAF347 and each metabolite at multiple concentrations.

| ratio to Compound A (AUC) ([1]; 400 mg and 800 mg dose) | dose proportionality of PK [1] | IC50 [2] | ratio to Compound A on C2D1 ([1]; 400 mg and 800 mg dose) | accumulation with repeat dosing ([1]; repeat dosing above 200 mg) | AUC compared with Compound A ([1]; repeated dosing, 2/3 subjects at 400 and 800 mg) | SMILES |
| --- | --- | --- | --- | --- | --- | --- |
| 15-20 % of parent | greater than dose proportional | 0.213 µM | – | – | – | C=C(C)c1cnn2c(N[C@@H]3CCc4[nH]c5ccccc5c4C3)nc(-c3cncc(F)c3)nc12 [Compound C] |
| – | greater than dose proportional | 0.023 µM | 1.3-1.4 × parent | Accumulation of Compound B observed | greater than Compound A | CC(C)(O)c1cnn2c(N[C@@H]3CCc4[nH]c5ccccc5c4C3)nc(-c3cncc(F)c3)nc12 [Compound B] |
